Results: patent US8999940B2 (Ipsen Pharma S.A.S., priority 2008, dated 2015)
Where a SMILES comes first, the peptide text is derived from it. Where no end group is shown, it is not given here. [ ]: non-standard residue; d: D form. The star is where a group is joined. Tic(7-OH) = O=C(O)[C@@H]1Cc2ccc(O)cc2CN1; Desaminotyrosyl = O=C(CCc1ccc(O)cc1)*; Nle = CCCC[C@H](N)C(=O)O; Ac5c = NC1(C(=O)O)CCCC1; Aib = CC(C)(N)C(=O)O

molecular target: T1, human recombinant GIP receptor (Homo sapiens, UniProt P48546); test: In vitro hGIP receptor binding assay; conditions: not given
T1 construct: expressed in transfected cells; host or cells: CHO-K1 clonal cells (membrane preparation)
T1 sequence (P48546 22-466): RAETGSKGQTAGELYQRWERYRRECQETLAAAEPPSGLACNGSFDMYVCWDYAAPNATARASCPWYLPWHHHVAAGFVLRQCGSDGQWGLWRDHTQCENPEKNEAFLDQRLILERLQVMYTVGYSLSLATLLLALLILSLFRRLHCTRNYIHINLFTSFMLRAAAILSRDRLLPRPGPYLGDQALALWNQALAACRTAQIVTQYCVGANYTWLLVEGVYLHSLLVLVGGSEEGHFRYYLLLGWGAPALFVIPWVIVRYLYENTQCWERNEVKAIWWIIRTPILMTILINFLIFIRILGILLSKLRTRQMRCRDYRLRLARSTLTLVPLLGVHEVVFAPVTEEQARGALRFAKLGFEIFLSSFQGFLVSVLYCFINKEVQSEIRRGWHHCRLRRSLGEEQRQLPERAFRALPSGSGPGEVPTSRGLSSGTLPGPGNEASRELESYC
Experimental: A. In Vitro hGIP Receptor Binding Assay […] The incubations were terminated by rapid filtration through GF/C filters (pre-soaked in 0.5% polyethylenimine) using a Brandel filtration manifold. Each tube and filter were then washed three times with 5-ml aliquots of ice-cold buffer.

Compound | Ki [nM]
CC[C@H](C)[C@H](NC(=O)[C@H](CO)NC(=O)[C@H](Cc1ccc(O)cc1)NC(=O)[C@H](CC(=O)O)NC(=O)[C@H](CO)NC(=O)[C@@H](NC(=O)[C@H](Cc1ccccc1)NC(=O)[C@@H](NC(=O)CNC(=O)[C@H](CCC(=O)O)NC(=O)C(C)(C)NC(=O)CCc1ccc(O)cc1)[C@@H](C)O)[C@@H](C)CC)C(=O)N[C@@H](C)C(=O)N[C@@H](CCSC)C(=O)N[C@@H](CC(=O)O)C(=O)N[C@@H](CCCCN)C(=O)N[C@H](C(=O)N[C@@H](Cc1c[nH]cn1)C(=O)N[C@@H](CCC(N)=O)C(=O)N[C@@H](CCC(N)=O)C(=O)N[C@@H](CC(=O)O)C(=O)N[C@@H](Cc1ccccc1)C(=O)N[C@H](C(=O)N[C@@H](CC(N)=O)C(=O)N[C@@H](Cc1c[nH]c2ccccc12)C(=O)N[C@@H](CC(C)C)C(=O)N[C@@H](CC(C)C)C(=O)N[C@@H](C)C(=O)N[C@@H](CCC(N)=O)C(=O)N[C@@H](CCCCN)C(N)=O)C(C)C)[C@@H](C)CC [Example 6, (4Hppa^1, Aib^2)hGIP(1-30)-NH2] | 1.58
[Tic(7-OH)][Aib]EGTFISDY[Ac5c]IAMDKIHQQDFVNWLLAQKGKKNDWKHNITQH-OH [Example 77, (7HO-Tic^1, Aib^2, A5c^11, His^43)hGIP(1-43)-OH] | 4.82
CC[C@H](C)[C@H](NC(=O)[C@H](CCCCN)NC(=O)[C@H](CC(=O)O)NC(=O)C1(NC(=O)[C@H](C)NC(=O)[C@@H](NC(=O)C2(NC(=O)[C@H](Cc3ccc(O)cc3)NC(=O)[C@H](CC(=O)O)NC(=O)[C@H](CO)NC(=O)[C@@H](NC(=O)[C@H](Cc3ccccc3)NC(=O)[C@@H](NC(=O)CNC(=O)[C@H](CCC(=O)O)NC(=O)C(C)(C)NC(=O)[C@@H](N)Cc3ccc(O)c(Br)c3)[C@@H](C)O)[C@@H](C)CC)CCCC2)[C@@H](C)CC)CCCC1)C(=O)N[C@@H](Cc1c[nH]cn1)C(=O)N[C@@H](CCC(N)=O)C(=O)N[C@@H](CCC(N)=O)C(=O)N[C@@H](CC(=O)O)C(=O)N[C@@H](Cc1ccccc1)C(=O)N[C@H](C(=O)N[C@@H](CC(N)=O)C(=O)N[C@@H](Cc1c[nH]c2ccccc12)C(=O)N[C@@H](CC(C)C)C(=O)N[C@@H](CC(C)C)C(=O)N[C@@H](C)C(=O)N[C@@H](CCC(N)=O)C(=O)N[C@@H](CCCCN)C(=O)NCC(=O)N[C@@H](CCCCN)C(=O)N[C@@H](CCCCN)C(=O)N[C@@H](CC(N)=O)C(=O)N[C@@H](CC(=O)O)C(=O)N[C@@H](Cc1c[nH]c2ccccc12)C(=O)N[C@@H](CCCCN)C(=O)N[C@@H](Cc1c[nH]cn1)C(=O)N[C@@H](CC(N)=O)C(=O)N[C@H](C(=O)N[C@H](C(=O)N[C@@H](CCC(N)=O)C(=O)N[C@@H](Cc1c[nH]cn1)C(=O)O)[C@@H](C)O)[C@@H](C)CC)C(C)C [Example 72, (3Br-Tyr^1, Aib^2, A5c^11, 14, His^43)hGIP(1-43)-OH] | 0.92
CC[C@H](C)[C@H](NC(=O)[C@H](CCCCN)NC(=O)[C@H](CC(=O)O)NC(=O)[C@H](CCSC)NC(=O)[C@H](C)NC(=O)[C@@H](NC(=O)C(C)(C)NC(=O)[C@H](Cc1ccc(O)cc1)NC(=O)[C@H](CC(=O)O)NC(=O)[C@H](CO)NC(=O)[C@@H](NC(=O)[C@H](Cc1ccccc1)NC(=O)[C@@H](NC(=O)CNC(=O)[C@H](CCC(=O)O)NC(=O)C(C)(C)NC(=O)CCc1ccc(O)cc1)[C@@H](C)O)[C@@H](C)CC)[C@@H](C)CC)C(=O)N[C@@H](Cc1c[nH]cn1)C(=O)N[C@@H](CCC(N)=O)C(=O)N[C@@H](CCC(N)=O)C(=O)N[C@@H](CC(=O)O)C(=O)N[C@@H](Cc1ccccc1)C(=O)N[C@H](C(=O)N[C@@H](CC(N)=O)C(=O)N[C@@H](Cc1c[nH]c2ccccc12)C(=O)N[C@@H](CC(C)C)C(=O)N[C@@H](CC(C)C)C(=O)N[C@@H](C)C(=O)N[C@@H](CCC(N)=O)C(=O)N[C@@H](CCCCN)C(N)=O)C(C)C [Example 4, (4Hppa^1, Aib^2,11)hGIP(1-30)-NH2] (Desaminotyrosyl-[Aib]EGTFISDY[Aib]IAMDKIHQQDFVNWLLAQK-NH2) | 15.4
CC[C@H](C)[C@H](NC(=O)[C@H](CO)NC(=O)[C@H](Cc1ccc(O)cc1)NC(=O)[C@H](CC(=O)O)NC(=O)[C@H](CO)NC(=O)C1(NC(=O)[C@H](Cc2ccccc2)NC(=O)[C@@H](NC(=O)CNC(=O)[C@H](CCC(=O)O)NC(=O)C(C)(C)NC(=O)CCc2ccc(O)cc2)[C@@H](C)O)CCCC1)C(=O)N[C@@H](C)C(=O)N[C@@H](CCSC)C(=O)N[C@@H](CC(=O)O)C(=O)N[C@@H](CCCCN)C(=O)N[C@H](C(=O)N[C@@H](Cc1c[nH]cn1)C(=O)N[C@@H](CCC(N)=O)C(=O)N[C@@H](CCC(N)=O)C(=O)N[C@@H](CC(=O)O)C(=O)N[C@@H](Cc1ccccc1)C(=O)N[C@H](C(=O)N[C@@H](CC(N)=O)C(=O)N[C@@H](Cc1c[nH]c2ccccc12)C(=O)N[C@@H](CC(C)C)C(=O)N[C@@H](CC(C)C)C(=O)N[C@@H](C)C(=O)N[C@@H](CCC(N)=O)C(=O)N[C@@H](CCCCN)C(N)=O)C(C)C)[C@@H](C)CC [Example 3, (4Hppa^1, Aib^2, A5c^7)hGIP(1-30)-NH2] | 5
CCCC[C@H](NC(=O)[C@H](C)NC(=O)[C@@H](NC(=O)C1(NC(=O)[C@H](Cc2ccc(O)cc2)NC(=O)[C@H](CC(=O)O)NC(=O)[C@H](CO)NC(=O)[C@@H](NC(=O)[C@H](Cc2ccccc2)NC(=O)[C@@H](NC(=O)CNC(=O)[C@H](CCC(=O)O)NC(=O)C(C)(C)NC(=O)[C@@H](N)Cc2ccc(O)c(Br)c2)[C@@H](C)O)[C@@H](C)CC)CCCC1)[C@@H](C)CC)C(=O)N[C@@H](CC(=O)O)C(=O)N[C@@H](CCCCN)C(=O)N[C@H](C(=O)N[C@@H](Cc1c[nH]cn1)C(=O)N[C@@H](CCC(N)=O)C(=O)N[C@@H](CCC(N)=O)C(=O)N[C@@H](CC(=O)O)C(=O)N[C@@H](Cc1ccccc1)C(=O)N[C@H](C(=O)N[C@@H](CC(N)=O)C(=O)N[C@@H](Cc1c[nH]c2ccccc12)C(=O)N[C@@H](CC(C)C)C(=O)N[C@@H](CC(C)C)C(=O)N[C@@H](C)C(=O)N[C@@H](CCC(N)=O)C(=O)N[C@@H](CCCCN)C(=O)NCC(=O)N[C@@H](CCCCN)C(=O)N[C@@H](CCCCN)C(=O)N[C@@H](CC(N)=O)C(=O)N[C@@H](CC(=O)O)C(=O)N[C@@H](Cc1c[nH]c2ccccc12)C(=O)N[C@@H](CCCCN)C(=O)N[C@@H](Cc1c[nH]cn1)C(=O)N[C@@H](CC(N)=O)C(=O)N[C@H](C(=O)N[C@H](C(=O)N[C@@H](CCC(N)=O)C(=O)N[C@@H](Cc1c[nH]cn1)C(=O)O)[C@@H](C)O)[C@@H](C)CC)C(C)C)[C@@H](C)CC [Example 71, (3Br-Tyr^1, Aib^2, A5c^11, Nle^14, His^43)hGIP(1-43)-OH] | 1.09
CCCC[C@H](NC(=O)[C@H](C)NC(=O)[C@@H](NC(=O)C(C)(C)NC(=O)[C@H](Cc1ccc(O)cc1)NC(=O)[C@H](CC(=O)O)NC(=O)[C@H](CO)NC(=O)[C@@H](NC(=O)[C@H](Cc1ccccc1)NC(=O)[C@@H](NC(=O)CNC(=O)[C@H](CCC(=O)O)NC(=O)C(C)(C)NC(=O)CCc1ccc(O)cc1)[C@@H](C)O)[C@@H](C)CC)[C@@H](C)CC)C(=O)N[C@@H](CC(=O)O)C(=O)N[C@@H](CCCCN)C(=O)N[C@H](C(=O)N[C@@H](Cc1c[nH]cn1)C(=O)N[C@@H](CCC(N)=O)C(=O)N[C@@H](CCC(N)=O)C(=O)N[C@@H](CC(=O)O)C(=O)N[C@@H](Cc1ccccc1)C(=O)N[C@H](C(=O)N[C@@H](CC(N)=O)C(=O)N[C@@H](Cc1c[nH]c2ccccc12)C(=O)N[C@@H](CC(C)C)C(=O)N[C@@H](CC(C)C)C(=O)N[C@@H](C)C(=O)N[C@@H](CCC(N)=O)C(=O)N[C@@H](CCCCN)C(N)=O)C(C)C)[C@@H](C)CC [Example 2, (4Hppa^1, Aib^2,11, Nle^14)hGIP(1-30)-NH2] (Desaminotyrosyl-[Aib]EGTFISDY[Aib]IA[Nle]DKIHQQDFVNWLLAQK-NH2) | 20.3
CCCC[C@H](NC(=O)[C@H](C)NC(=O)[C@@H](NC(=O)[C@H](CO)NC(=O)[C@H](Cc1ccc(O)cc1)NC(=O)[C@H](CC(=O)O)NC(=O)[C@H](CO)NC(=O)C1(NC(=O)[C@H](Cc2ccccc2)NC(=O)[C@@H](NC(=O)CNC(=O)[C@H](CCC(=O)O)NC(=O)C(C)(C)NC(=O)CCc2ccc(O)cc2)[C@@H](C)O)CCCC1)[C@@H](C)CC)C(=O)N[C@@H](CC(=O)O)C(=O)N[C@@H](CCCCN)C(=O)N[C@H](C(=O)N[C@@H](Cc1c[nH]cn1)C(=O)N[C@@H](CCC(N)=O)C(=O)N[C@@H](CCC(N)=O)C(=O)N[C@@H](CC(=O)O)C(=O)N[C@@H](Cc1ccccc1)C(=O)N[C@H](C(=O)N[C@@H](CC(N)=O)C(=O)N[C@@H](Cc1c[nH]c2ccccc12)C(=O)N[C@@H](CC(C)C)C(=O)N[C@@H](CC(C)C)C(=O)N[C@@H](C)C(=O)N[C@@H](CCC(N)=O)C(=O)N[C@@H](CCCCN)C(N)=O)C(C)C)[C@@H](C)CC [Example 1, (4Hppa^1, Aib^2, A5c^7, Nle^14)hGIP(1-30)-NH2] (Desaminotyrosyl-[Aib]EGTF[Ac5c]SDYSIA[Nle]DKIHQQDFVNWLLAQK-NH2) | 12.6

same assay, conditions: membranes of CHO-K1 cells expressing the human recombinant GIP receptor; 0.05 nM [125I]GIP; 100 minutes at 25° C.; read-out: Ki

Ki [nM] | Compound
42.4 | [3Cl-Tyr^1, Aib^2, A5c^11, Cys^43(succinimide-N—(CH2)2—C(O)NH—(CH2)3—O—CH2—CH(20K PEG)-CH2-20K PEG)]hGIP(1-43)-NH2 [Example 102]
